# Test results published in ChEMBL document CHEMBL3885881, “DrugMatrix”.
# Species on record: Rattus norvegicus
# Assay: DrugMatrix - Regimen: Daily Repeat
# Assay type: toxicity, organism-based, Sprague-Dawley
# Set-up: regimen Daily Repeat, gender Male, age 6-8 weeks
# Details: in vivo, po, route oral GAVAGE, vehicle 100 % WATER; for BASOPHIL / EOSINOPHIL / ERYTHROCYTE COUNT / HEMATOCRIT / HEMOGLOBIN / LEUKOCYTE COUNT / LYMPHOCYTE / MEAN CORPUSCULAR HEMOGLOBIN / MEAN CORPUSCULAR HEMOGLOBIN CONCENTRATION / MEAN CORPUSCULAR VOLUME / MONOCYTE / NEUTROPHIL / PLATELET COUNT: tissue Blood; for ALANINE AMINOTRANSFERASE / ALBUMIN / ALKALINE PHOSPHATASE / ASPARTATE AMINOTRANSFERASE / BLOOD UREA NITROGEN / CHLORIDE / CHOLESTEROL / CREATINE PHOSPHOKINASE / CREATININE / GLUCOSE / PHOSPHORUS / POTASSIUM / SODIUM / TOTAL BILIRUBIN / TOTAL PROTEIN: tissue Plasma
# [1] = 0 mg/kg, 72 h, dose level Control, time 3 day
# [2] = 0 mg/kg, 120 h, dose level Control, time 5 day
# [3] = 45 mg/kg, 72 h, dose level Low, time 3 day
# [4] = 45 mg/kg, 120 h, dose level Low, time 5 day
compound,measurement,setting,value
Nc1ccc(S(=O)(=O)Nc2ncccn2)cc1 [SULFADIAZINE],BASOPHIL,[1],0%
same,EOSINOPHIL,[1],0.5%
same,ERYTHROCYTE COUNT,[1],5.8 x10E6/uL
same,HEMATOCRIT,[1],35.07%
same,HEMOGLOBIN,[1],14.12 G/DL
same,LEUKOCYTE COUNT,[1],13.7 x10E3/uL
same,LYMPHOCYTE,[1],82.33%
same,MEAN CORPUSCULAR HEMOGLOBIN,[1],24.38 pg
same,MEAN CORPUSCULAR HEMOGLOBIN CONCENTRATION,[1],40.28 G/DL
same,MEAN CORPUSCULAR VOLUME,[1],60.52 fL
same,MONOCYTE,[1],2.67%
same,NEUTROPHIL,[1],14.5%
same,PLATELET COUNT,[1],911.5 x10E3/uL
same,ALANINE AMINOTRANSFERASE,[1],36.83 u/L
same,ALBUMIN,[1],3.75 G/DL
same,ALKALINE PHOSPHATASE,[1],399.83 u/L
same,ASPARTATE AMINOTRANSFERASE,[1],66 u/L
same,BLOOD UREA NITROGEN,[1],14.67 mg/dL
same,CHLORIDE,[1],101.67 MEQ/L
same,CHOLESTEROL,[1],66.33 mg/dL
same,CREATINE PHOSPHOKINASE,[1],139.5 u/L
same,CREATININE,[1],0.92 mg/dL
same,GLUCOSE,[1],175 mg/dL
same,PHOSPHORUS,[1],11.42 mg/dL
same,POTASSIUM,[1],7.03 MEQ/L
same,SODIUM,[1],148.5 MEQ/L
same,TOTAL BILIRUBIN,[1],1.13 mg/dL
same,TOTAL PROTEIN,[1],6.87 G/DL
same,BASOPHIL,[2],0%
same,EOSINOPHIL,[2],0.2%
same,ERYTHROCYTE COUNT,[2],6.02 x10E6/uL
same,HEMATOCRIT,[2],36.48%
same,HEMOGLOBIN,[2],14.38 G/DL
same,LEUKOCYTE COUNT,[2],12.34 x10E3/uL
same,LYMPHOCYTE,[2],83%
same,MEAN CORPUSCULAR HEMOGLOBIN,[2],23.92 pg
same,MEAN CORPUSCULAR HEMOGLOBIN CONCENTRATION,[2],39.44 G/DL
same,MEAN CORPUSCULAR VOLUME,[2],60.66 fL
same,MONOCYTE,[2],3%
same,NEUTROPHIL,[2],13.8%
same,PLATELET COUNT,[2],1190.6 x10E3/uL
same,ALANINE AMINOTRANSFERASE,[2],43 u/L
same,ALBUMIN,[2],3.73 G/DL
same,ALKALINE PHOSPHATASE,[2],393 u/L
same,ASPARTATE AMINOTRANSFERASE,[2],62.33 u/L
same,BLOOD UREA NITROGEN,[2],16.33 mg/dL
same,CHLORIDE,[2],101.67 MEQ/L
same,CHOLESTEROL,[2],65.5 mg/dL
same,CREATINE PHOSPHOKINASE,[2],130.67 u/L
same,CREATININE,[2],0.58 mg/dL
same,GLUCOSE,[2],180.67 mg/dL
same,PHOSPHORUS,[2],11.28 mg/dL
same,POTASSIUM,[2],7.05 MEQ/L
same,SODIUM,[2],148.17 MEQ/L
same,TOTAL BILIRUBIN,[2],0.72 mg/dL
same,TOTAL PROTEIN,[2],6.83 G/DL
same,BASOPHIL,[3],0%
same,EOSINOPHIL,[3],0%
same,ERYTHROCYTE COUNT,[3],6.15 x10E6/uL
same,HEMATOCRIT,[3],35.77%
same,HEMOGLOBIN,[3],14.2 G/DL
same,LEUKOCYTE COUNT,[3],14.83 x10E3/uL
same,LYMPHOCYTE,[3],84%
same,MEAN CORPUSCULAR HEMOGLOBIN,[3],23.1 pg
same,MEAN CORPUSCULAR HEMOGLOBIN CONCENTRATION,[3],39.67 G/DL
same,MEAN CORPUSCULAR VOLUME,[3],58.17 fL
same,MONOCYTE,[3],2%
same,NEUTROPHIL,[3],14%
same,PLATELET COUNT,[3],1166 x10E3/uL
same,ALANINE AMINOTRANSFERASE,[3],33 u/L
same,ALBUMIN,[3],3.57 G/DL
same,ALKALINE PHOSPHATASE,[3],285 u/L
same,ASPARTATE AMINOTRANSFERASE,[3],56 u/L
same,BLOOD UREA NITROGEN,[3],11.67 mg/dL
same,CHLORIDE,[3],102 MEQ/L
same,CHOLESTEROL,[3],73.33 mg/dL
same,CREATINE PHOSPHOKINASE,[3],134 u/L
same,CREATININE,[3],0.6 mg/dL
same,GLUCOSE,[3],186 mg/dL
same,PHOSPHORUS,[3],11.9 mg/dL
same,POTASSIUM,[3],7 MEQ/L
same,SODIUM,[3],149.67 MEQ/L
same,TOTAL BILIRUBIN,[3],0.3 mg/dL
same,TOTAL PROTEIN,[3],6.33 G/DL
same,BASOPHIL,[4],0%
same,EOSINOPHIL,[4],0.33%
same,ERYTHROCYTE COUNT,[4],6.55 x10E6/uL
same,HEMATOCRIT,[4],40.3%
same,HEMOGLOBIN,[4],15.6 G/DL
same,LEUKOCYTE COUNT,[4],12.63 x10E3/uL
same,LYMPHOCYTE,[4],84%
same,MEAN CORPUSCULAR HEMOGLOBIN,[4],23.9 pg
same,MEAN CORPUSCULAR HEMOGLOBIN CONCENTRATION,[4],38.8 G/DL
same,MEAN CORPUSCULAR VOLUME,[4],61.57 fL
same,MONOCYTE,[4],1%
same,NEUTROPHIL,[4],14.67%
same,PLATELET COUNT,[4],1086.33 x10E3/uL
same,ALANINE AMINOTRANSFERASE,[4],37.67 u/L
same,ALBUMIN,[4],3.9 G/DL
same,ALKALINE PHOSPHATASE,[4],378 u/L
same,ASPARTATE AMINOTRANSFERASE,[4],55.67 u/L
same,BLOOD UREA NITROGEN,[4],12.67 mg/dL
same,CHLORIDE,[4],104 MEQ/L
same,CHOLESTEROL,[4],66.33 mg/dL
same,CREATINE PHOSPHOKINASE,[4],110.67 u/L
same,CREATININE,[4],0.63 mg/dL
same,GLUCOSE,[4],181.67 mg/dL
same,PHOSPHORUS,[4],12.57 mg/dL
same,POTASSIUM,[4],7.23 MEQ/L
same,SODIUM,[4],151.33 MEQ/L
same,TOTAL BILIRUBIN,[4],0.4 mg/dL
same,TOTAL PROTEIN,[4],7.03 G/DL
